{
  "source": "patent US11007182B2",
  "about": "“Use of atpenin to activate innate immunity” (Health Research, Inc., priority 2015, dated 2021)",
  "assay_type_in_all_cases": "cell-based, human",
  "key": {"[1]": {"test_system": "APOBEC3A-mediated RNA editing", "assay": "SDHB c.136C>U site-specific RNA editing assay (RT-PCR) in monocyte-enriched PBMCs", "details": "for effect on hypoxia-induced RNA editing: hypoxia 1% O2; for effect on hypoxia-induced RNA editing / induction of APOBEC3A-mediated RNA editing in normoxia: atpenin A5 1-3 μM, DMOG 1 mM, myxothiazol 1 μM; for induction of APOBEC3A-mediated RNA editing in normoxia: TTFA 1 mM", "procedure": "Peripheral blood mononuclear cells of anonymous platelet donors were isolated from peripheral blood in Trima Accel™ leukoreduction system chambers (Terumo BCT®, Lakewood, Colo.) after thrombocytapheresis, in accordance with a protocol approved by the institutional review board of Roswell Park Cancer Institute. A density gradient centrifugation method using polysucrose-containing Lymphocyte Separation Medium (Mediatech®, Manassas, Va.) was used for PBMC isolation. MEPs were prepared from PBMCs using the well-established cold aggregation method with slight modification (Mentzer et al 1986). Briefly, PBMCs were subjected to gentle rocking at 4° C. for an hour and aggregated cells that sedimented through fetal bovine serum (FBS; VWR®, Radnor, Pa.) were collected as MEPs (monocyte-enriched PBMCs) after 0.5-3 hours for high monocyte enrichment (˜70% monocytes as assessed by immunofluorocytometry for CD14), or after 8-16 hours for mild enrichment (˜20%-40% monocytes). MEPs were cultured at a density of at least 20 million per ml in 1 or 2 ml per well of 6- or 12-well standard tissue culture plates under 5% CO2 in RPMI-1640 medium (Mediatech®) with 10% FBS, and 100 U per ml penicillin and 100 μg per ml streptomycin (Mediatech®). CD14 positive monocytes were separated in certain experiments from MEPs that were initially cultured for 1 or 2 days using magnetic beads and donut-shaped magnet (EasySep cell isolation kit purchased from STEMCELL Technologies).\nFor hypoxia, cells were cultured under 1% O2, 5% CO2 and 94% N2 in an XVIVO SYSTEM® (a cell culture system) (Biospherix®, Lacona, N.Y.). ‘Universal’ type I IFN, a hybrid of N-terminal IFNα-2 and C-terminal IFNα-1, produced in E. coli were obtained from PBL Assay Science® (Piscataway, N.J.), and respectively used at 300 U per ml. Unless noted otherwise, hypoxia and/or interferon treatments were for 24 hours. Differential viability of MEPs after 1-day culture in normoxia versus hypoxia was not observed as evaluated by Trypan blue stain.\nSDHB c.136C>U site-specific RNA editing, catalyzed by APOBEC3A cytidine deaminase, was quantified by RT-PCR as described (Baysal et al 2013). Total RNA, genomic DNA and plasmid DNA were isolated using material and methods provided with TRIzol™, DNA Wizard Genomic DNA Purification Kit (Promega®), and Plasmid Kit (Qiagen®, Germantown, Md.), respectively. RNA/DNA was quantified by spectrophotometry on a Nanodrop™ 2000 instrument (Thermo Fisher®). Proteins were quantified using Bio-Rad® Dc™ assay with bovine serum albumin standards. Statistical tests were two-tailed and were performed using R 3.0, Excel™ 2010 (Microsoft®, Redmond, Wash.), or Prism™ 6.0 (GraphPad®, San Diego, Calif.) software.\nAtpenin A5 is purchased from Cayman Chemical (CAS 119509-24-9), dissolved in DMSO and used in final concentrations of 1-3 μM in culture. DMOG (dimethyloxalylglycine; CAS 89464-63-1) and myxothiazol (CAS 76706-55-3) are purchased from Sigma-Aldrich, dissolved in DMSO and used in final concentrations of 1 mM and 1 μM, respectively."}, "HIF1α [2]": {"test_system": "HIF1α", "assay": "HIF1α stabilization (immunoblotting) in 293T cells", "details": "for HIF1α stabilization in mild hypoxia: 6% O2", "procedure": "(§1) FIG. 6. Inhibition of complex II reduces oxygen consumption and antagonizes HIF-1. […] DMSO indicates the untreated vehicle control. […] The oxygen levels are measured by a fluorescent dye, which is quenched by oxygen (i.e., more fluorescence, less oxygen). Results are averages from 3 donors' monocyte-enriched PBMCs with SEMs shown in dashed lines.\n(§2) We used primary human monocytes and 293T HEK cells to investigate their response to hypoxia and to cell-permeable complex II inhibitors (atpenin A5, TTFA) using cell culture methods, high throughout RNA sequencing, qPCR, immunoblotting and oxygen consumption assays."}, "monocyte-enriched PBMCs": {"test_system": "monocyte-enriched PBMCs", "assay": "Oxygen consumption assay (oxygen-quenched fluorescent dye) in monocyte-enriched PBMCs", "details": "averages from 3 donors' monocyte-enriched PBMCs", "procedure": "as §1, §2"}, "HIF1α [3]": {"test_system": "HIF1α", "assay": "HIF1α stabilization (immunoblotting) in CD14 negative lymphocytes and CD14 positive monocytes", "details": "FIG. 5", "description": "FIG. 5. HIF1α is stabilized in CD14 negative lymphocytes, but not in CD14 positive monocytes in hypoxia (H, 1% O2, day 1). […] CD14± cells are unsorted PBMCs.\nas §2"}, "[4]": {"test_system": "hypoxia-related gene expression in monocytes", "assay": "RNA seq and RT-qPCR of hypoxic gene expression in monocytes", "description": "FIG. 4. AtA5 treatment in normoxia induces hypoxic gene expression in monocytes.\nas §2\nOn the contrary, AtA5 reduces cellular oxygen consumption in peripheral blood mononuclear cells and inhibits HIF-la stabilization in mildly hypoxic conditions in 293T cells (FIG. 6)."}},
  "data": [
    {"compound": "CO/C(=C/C(N)=O)[C@H](C)[C@H](/C=C/c1csc(-c2csc([C@@H](C)/C=C/C=C/C(C)C)n2)n1)OC", "note": "[myxothiazol]", "values": [
      {"measurement": "effect on hypoxia-induced RNA editing", "setting": "[1]; MEPs", "value": "inhibited hypoxia-induced RNA editing"},
      {"measurement": "induction of APOBEC3A-mediated RNA editing in normoxia", "setting": "[1]; normoxia, MEPs", "value": "did not induce RNA editing in normoxia"},
      {"measurement": "HIF1α stabilization in severe hypoxia", "setting": "HIF1α [2]; 1% O2, 293T cells, day 1", "value": "inhibits it both in mild and severe hypoxia"},
      {"measurement": "HIF1α stabilization in mild hypoxia", "setting": "HIF1α [2]; 293T cells, day 1", "value": "inhibits it both in mild and severe hypoxia"},
      {"measurement": "oxygen consumption relative to control cells", "setting": "monocyte-enriched PBMCs", "value": "completely inhibit oxygen consumption"}
    ]},
    {"compound": "O=C(CC(=O)C(F)(F)F)c1cccs1", "note": "[TTFA, thenoyltrifluoroacetone]", "values": [
      {"measurement": "induction of APOBEC3A-mediated RNA editing in normoxia", "setting": "[1]; normoxia, MEPs", "value": "induces RNA editing in normoxia"}
    ]},
    {"compound": "COC(=O)CNC(=O)C(=O)OC", "note": "[DMOG, dimethyloxalylglycine]", "values": [
      {"measurement": "HIF1α stabilization in normoxia in lymphocytes and monocytes", "setting": "HIF1α [3]", "value": "stabilizes HIF1α in both lymphocytes and monocytes"},
      {"measurement": "effect on hypoxia-induced RNA editing", "setting": "[1]; MEPs", "value": "inhibited hypoxia-induced RNA editing"},
      {"measurement": "induction of APOBEC3A-mediated RNA editing in normoxia", "setting": "[1]; normoxia, MEPs", "value": "did not induce RNA editing in normoxia"}
    ]},
    {"compound": "antimycin A", "values": [
      {"measurement": "oxygen consumption relative to control cells", "setting": "monocyte-enriched PBMCs", "value": "completely inhibit oxygen consumption"}
    ]},
    {"compound": "COc1[nH]c(=O)c(C(=O)[C@@H](C)C[C@H](C)[C@@H](Cl)CCl)c(O)c1OC", "note": "[atpenin A5]", "values": [
      {"measurement": "HIF1α stabilization in normoxia in lymphocytes and monocytes", "setting": "HIF1α [3]", "value": "does not stabilize HIF1α in normoxia in lymphocytes or monocytes"},
      {"measurement": "cell population in which induced RNA editing occurs", "setting": "[1]; CD14 positive and CD14 negative cells separated from MEPs after culture", "value": "induced RNA editing occurs in CD14+ monocytes"},
      {"measurement": "effect on hypoxia-induced RNA editing", "setting": "[1]; MEPs", "value": "without inhibiting the hypoxia-induced RNA editing"},
      {"measurement": "RNA editing levels induced in normoxia relative to hypoxic stimulation", "setting": "[1]; normoxia versus hypoxia, FIG. 1", "value": "comparable to levels observed upon hypoxic stimulation"},
      {"measurement": "induction of APOBEC3A-mediated RNA editing in normoxia", "setting": "[1]; normoxia, MEPs", "value": "induced APOBEC3A-mediated RNA editing in normoxia"},
      {"measurement": "effect on RNA editing in combination with interferon", "setting": "[1]; normoxia, MEPs, type I IFN 300 U per ml", "value": "synergistic effect with interferon-induced RNA editing levels"},
      {"measurement": "monocyte-enriched PBMCs from donors (biological replicates) with normoxic induction of RNA editing", "setting": "[1]; normoxia, p=0.00013, two-sided Wilcoxon pairwise test", "value": "19 of 19"},
      {"measurement": "HIF1α stabilization in mild hypoxia", "setting": "HIF1α [2]; 293T cells, day 1", "value": "inhibits HIF1α stabilization in mild hypoxia"},
      {"measurement": "HIF-1α stabilization in normoxia in 293T cells", "setting": "HIF1α [2]; normoxic treatment, 293T embryonic kidney cells, FIG. 6", "value": "does not stabilize HIF-la"},
      {"measurement": "effect on A3A-mediated RNA editing or transcript induction in hypoxic monocytes", "setting": "[4]; hypoxic monocytes", "value": "does not inhibit A3A-mediated RNA editing or transcript induction in hypoxic monocytes"},
      {"measurement": "expression of hypoxia-related and pro-angiogenic genes (RT-qPCR)", "setting": "[4]; normoxic treatment of monocytes", "value": "causes upregulation of many hypoxia-related and pro-angiogenic genes including VEGFA, CXCL8 (IL8) and CXCR4"},
      {"measurement": "transcriptome-scale changes (RNA seq and RNA editing analyses)", "setting": "[4]; normoxic treatment of monocytes, FIG. 4", "value": "closely mimics the hypoxia effects in inducing transcriptome-scale changes"},
      {"measurement": "oxygen consumption relative to control cells", "setting": "monocyte-enriched PBMCs", "value": "reduces oxygen consumption relative to control cells (blue), but does not abolish it"}
    ]}
  ]
}
